By Ki is commonly meant a dissociation constant, usually derived from enzyme kinetics or from competition with a known ligand.

Here are results for nine molecules from ChEMBL document CHEMBL1139572 (Bioorg Med Chem Lett, 2005).

For assay [1], the target named is T1, Progesterone receptor (Homo sapiens, UniProt P06401).
T1 sequence (P06401 whole entry): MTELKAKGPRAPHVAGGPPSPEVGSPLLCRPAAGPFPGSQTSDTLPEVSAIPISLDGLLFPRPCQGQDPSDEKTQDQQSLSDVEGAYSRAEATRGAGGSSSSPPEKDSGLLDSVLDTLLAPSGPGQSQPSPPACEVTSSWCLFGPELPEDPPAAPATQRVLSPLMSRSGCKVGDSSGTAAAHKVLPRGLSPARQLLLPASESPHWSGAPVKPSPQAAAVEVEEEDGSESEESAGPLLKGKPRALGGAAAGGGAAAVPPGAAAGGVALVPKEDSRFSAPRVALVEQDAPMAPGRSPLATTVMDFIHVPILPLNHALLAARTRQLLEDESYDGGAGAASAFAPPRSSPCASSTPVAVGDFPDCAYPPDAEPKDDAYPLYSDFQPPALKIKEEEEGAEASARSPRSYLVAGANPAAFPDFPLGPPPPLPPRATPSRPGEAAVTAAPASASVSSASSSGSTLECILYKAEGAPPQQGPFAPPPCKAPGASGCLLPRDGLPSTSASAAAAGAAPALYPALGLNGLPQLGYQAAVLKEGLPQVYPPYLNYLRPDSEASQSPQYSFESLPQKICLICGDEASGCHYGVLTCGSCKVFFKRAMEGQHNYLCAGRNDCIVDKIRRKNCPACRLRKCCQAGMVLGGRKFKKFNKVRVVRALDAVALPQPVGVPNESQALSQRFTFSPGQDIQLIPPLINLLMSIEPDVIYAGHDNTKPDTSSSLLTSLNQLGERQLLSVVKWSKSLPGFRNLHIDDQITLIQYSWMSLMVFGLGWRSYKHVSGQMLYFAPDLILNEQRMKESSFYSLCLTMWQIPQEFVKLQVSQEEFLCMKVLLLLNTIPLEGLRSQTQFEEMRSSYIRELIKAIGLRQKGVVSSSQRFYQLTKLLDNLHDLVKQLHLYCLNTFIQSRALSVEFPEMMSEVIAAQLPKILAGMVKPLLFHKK
The experiment in a line: Displacement of fluorescent ligand from binding domain of progesterone receptor.

The target in assay [2] is T1, Progesterone receptor. Put plainly: Inhibition of 4 nM progesterone-stimulated transactivation of MMTV-Luc reporter in CV-1 cells expressing PR-B. The class given is functional, cell-based.

On to `CC1CC(c2ccc(Cl)c(Cl)c2)=NN1S(=O)(=O)c1ccc(Cl)cc1` (stereo unspecified), for which the Ki on Progesterone receptor [1] is 39.8 nM. Besides, at Progesterone receptor [2], the Log IC50 is -6.7.

The molecule `CN(C)c1ccc([C@@H]2CN(S(=O)(=O)c3ccc(Cl)cc3)N=C2c2ccc(Cl)c(Cl)c2)cc1` gave a Ki at Progesterone receptor [1] of 100 nM. The molecule also returned a Log IC50 at Progesterone receptor [2] of -5.8.

Molecule `O=S(=O)(c1ccc(Cl)cc1)N1N=C(c2ccc(Cl)c(Cl)c2)CC1c1ccccc1` (stereo unspecified) gave a Ki at Progesterone receptor [1] of 7940 nM. On Progesterone receptor [2], this molecule returned a Log IC50 of -6.4. `CN(C)c1ccc(C2CN(S(=O)(=O)c3ccc(Cl)cc3)N=C2c2ccc(Cl)c(Cl)c2)cc1` (stereo unspecified) showed a Ki at Progesterone receptor [1] of 39.8 nM. Further, the Log IC50 on Progesterone receptor [2] was -6.1. On Progesterone receptor [1], `C[C@@H]1CN(S(=O)(=O)c2ccc(Cl)cc2)N=C1c1ccc(Cl)c(Cl)c1` showed a Ki of 2000 nM. The molecule also gave a Log IC50 at Progesterone receptor [2] of -5.3. In turn, `C[C@H]1CN(S(=O)(=O)c2ccc(Cl)cc2)N=C1c1ccc(Cl)c(Cl)c1` showed a Ki at Progesterone receptor [1] of 20 nM. The same molecule yielded a Log IC50 at Progesterone receptor [2] of -7.6. As to `O=S(=O)(c1ccc(Cl)cc1)N1CC(c2ccccc2)C(c2ccc(Cl)c(Cl)c2)=N1` (stereo unspecified), the affinity on Progesterone receptor [1] corresponds to a Ki of 100 nM. For `CC1CN(S(=O)(=O)c2ccc(Cl)cc2)N=C1c1ccc(Cl)c(Cl)c1` (stereo unspecified), the affinity at Progesterone receptor [1] corresponds to a Ki of 39.8 nM. Regarding `CN(C)c1ccc([C@H]2CN(S(=O)(=O)c3ccc(Cl)cc3)N=C2c2ccc(Cl)c(Cl)c2)cc1`, at Progesterone receptor [1], the Ki was greater than 10000 nM. Also, the Log IC50 on Progesterone receptor [2] is greater than -5.5.
